Laboratory results from patent US5908862A, “Water-miscible esters of mono--and diglycerides having antibacterial activity and their use in inhibiting infection” (priority 1996, dated 1999).

Test system: human respiratory syncytial virus (RSV) in LLC-MK2 cells
Experiment: RSV inhibition assay in LLC-MK2 cells (immunoperoxidase), PBS
Assay type: cell-based
Settings: Carrageenan's IC50; Carrageenan alone
Description: Additional studies were performed to determine the synergistic anti-viral effects of diacetyltartaric acid esters of mono- and diglycerides, lipophilic monoglycerides (MG) and carrageenan. These studies were carried out using […] and PBS as the diluent. The RSV inhibition assay semi-quantitatively determines the ability of a test material (antibody or other bioactive compound) to inhibit the infection of monkey kidney cells (LLC-MK2) by human respiratory syncytial virus (RSV). Infected cells are identified using an immunoperoxidase method and counted. The method is performed in a microtiter format and is described briefly below:
LLC-MK2 rhesus monkey kidney cells were obtained from the American Type Culture Collection and were cultured in Eagles […] essential medium (EMEM) supplemented with 10% fetal bovine serum. […] Plates were then rinsed as above with PBS/CEA, and the number of stained RSV-infected cells (IC) per well determined using an inverted microscope. The number of ICs' in triplicate wells was compared with the number of ICs' of virus control wells (mean of 9)and the percent inhibition (PI) calculated; [PI=1.0-[Mean ICs' per well of test sample/Mean ICs' per well of virus control]. […]

Substance: Carrageenan
- Enhancement Factor: 1.0
